The results in this text go back to ChEMBL document CHEMBL1141944, “A synthesis of 3-deoxydihydrolycoricidine: refinement of a structurally minimum pancratistatin pharmacophore” (Bioorg Med Chem Lett, 2005).

Calls of active or inactive are those of the source. No cut-off for these calls is given here.

What all share (type): functional, cell-based
Test [1] concerns MCF7. Briefly: Induction of apoptosis in human breast carcinoma MCF7 cell line.
The subject of test [2] is MCF7. Briefly: Antitumor activity in human breast carcinoma MCF7 cell line at 1 to 10 uM.
The subject of test [3] is Jurkat. Briefly: Induction of apoptosis in human Jurkat […] cell line.
Test [4] relates to Jurkat. Briefly: Antitumor activity in human Jurkat […] cell line at 1 to 10 uM.

On to `O=C1N[C@H]2[C@H](O)C[C@@H](O)C[C@@H]2c2cc3c(cc21)OCO3`, for which the outcome with MCF7 [1], with MCF7 [2], in the test on Jurkat [3] and in the test on Jurkat [4] was inactive.

Turning to `O=C1N[C@H]2[C@H](O)[C@H](O)[C@@H](O)[C@H](O)[C@@H]2c2cc3c(c(O)c21)OCO3`, the result in the test on MCF7 [1] and in the test on Jurkat [3] was Active.
